The values that follow come from patent US20190145978A1, “APPLICATION OF PDE3A IN JUDGMENT OF TUMOR TREATMENT EFFECT OF ANAGRELID” (Shanghai Institute of Materia Medica, Chinese Academy of …, priority 2016, published 2019).

The test system of one data set is A498. Description: MTT assay, IC50 of anagrelide on tumor cell line. The format is cell-based. Particulars: Homo sapiens, 72 h. As to the method:
(§1) 3. Determination of Half Poisoning Dose of Drugs to Cells (MTT Method)
(§2) The liquid containing drugs was continuously geometrically diluted to 1:10, 1:100, 1:1,000, 1:10,000 with a cell maintenance solution, and a normal cell control group was set up. Different concentrations of each drug were added into a 96-well plate that has been grown into a single layer, respectively, and inoculated per dilution in triplicate, and 100 μl was added per well, and the plate was incubated in a carbon dioxide incubator at 37° C. for 72 h, followed by 5 μg/ml 25 μL of MTT was added.
(§3) The culture was continued for 3.5 h, and the supernatant was removed and discarded. 150 μl of the dissolving solution DMSO was added to each well, and the plate was shaked for 5 to 10 min, until the crystals were completely dissolved. Then the OD value at 570 nm was measured by a microplate reader. The cell viability of each drug dilution was calculated: cell viability %=(mean value of experimental well OD measured value/mean value of control well OD measured value)×100%. The drug concentration at 50% cell poisoning (IC50) was calculated using probability unit regression.
(§4) The cell lines in Example 1 were subjected to an activity assay using Anagrelide at a concentration of 1 μM, and the cell lines were classified into three categories according to cell viability: sensitive (S), moderately sensitive (M), and insensitive (R), and the IC50 value of anagrelide in inhibiting each cell line was further determined.
A general note: Tetrazolium dyes change colour on reduction, which living cells bring about.

The next data set deals with Bel7404. Description: MTT assay, IC50 of anagrelide on tumor cell line. The format is cell-based. Particulars: Homo sapiens, BEL-7404, 72 h. Here is the method: as §1, §2, §3, §4
Another data set concerns FHCC98. Briefly: MTT assay, IC50 of anagrelide on tumor cell line. The data set is classed as cell-based. Particulars: Homo sapiens, FHCC-98, 72 h. Here is the method:
as §1, §2, §3, §4

The next data set concerns H4. Description: MTT assay, IC50 of anagrelide on tumor cell line. Particulars: Homo sapiens, 72 h. The data set is classed as cell-based. Here is the method: as §1, §2, §3, §4
The test system of a further data set is Hela. Briefly: MTT assay, IC50 of anagrelide on tumor cell line. The data set is classed as cell-based. Particulars: Homo sapiens, 72 h. As to the method: as §1, §2, §3, §4
A further data set relates to SMMC7721. Briefly: MTT assay, IC50 of anagrelide on tumor cell line. Particulars: Homo sapiens, SMMC-7721, 72 h. The format is cell-based. As to the method:
as §1, §2, §3, §4

Another data set has as its system SW1116. Briefly: MTT assay, IC50 of anagrelide on tumor cell line. The data set is classed as cell-based. Conditions: Homo sapiens, SW 1116, 72 h. As to the method:
as §1, §2, §3, §4

For data set [1], the system named is SMMC7721, FHCC98, H4, and HeLa. Description: Antitumor activity assay (MTT), anagrelide-sensitive PDE3A-positive cell lines. The format is cell-based, human. Conditions: for IC50: Homo sapiens. Here is the method: (§5) Wherein anagrelide (1 μM) is used for treatment for 72 hours, and MTT assay is used to detect the cell survival rate. The cells are classified by the test results: sensitive (survival rate <40%), moderately sensitive (40-75% of survival rate), resistance (survival rate >75. The cell names in the figure are marked with a circle and a triangle respectively to identify the sensitive group and the moderately sensitive group. 3. Determination of Half Poisoning Dose of Drugs to Cells (MTT Method) The liquid containing drugs was continuously geometrically diluted to 1:10, 1:100, 1:1,000, 1:10,000 with a cell maintenance solution, and a normal cell control group was set up. Different concentrations of each drug were added into a 96-well plate that has been grown into a single layer, respectively, and inoculated per dilution in triplicate, and 100 μl was added per well, and the plate was incubated in a carbon dioxide incubator at 37° C. for 72 h, followed by 5 μg/ml 25 μL of MTT was added. The culture was continued for 3.5 h, and the supernatant was removed and discarded. 150 μl of the dissolving solution DMSO was added to each well, and the plate was shaked for 5 to 10 min, until the crystals were completely dissolved. Then the OD value at 570 nm was measured by a microplate reader. The cell viability of each drug dilution was calculated: cell viability %=(mean value of experimental well OD measured value/mean value of control well OD measured value)×100%. The drug concentration at 50% cell poisoning (IC50) was calculated using probability unit regression. The cell lines in Example 1 were subjected to an activity assay using Anagrelide at a concentration of 1 μM, and the cell lines were classified into three categories according to cell viability: sensitive (S), moderately sensitive (M), and insensitive (R), and the IC50 value of anagrelide in inhibiting each cell line was further determined.

Another data set concerns Bel7404, A498 and SW1116. Briefly: Antitumor activity assay (MTT), moderately sensitive PDE3A-positive cell lines. The format is cell-based, human. As to the method:
as §5, with “150 μl of the dissolving solution DMSO was added to each well, and the plate was shaked for 5 to 10 min, until the crystals were completely dissolved.” left out, “The drug concentration at 50% cell poisoning (IC50) was calculated using probability unit regression. The cell lines in Example 1 were subjected to an activity assay using Anagrelide at a concentration of 1 μM, and the cell lines were classified into three categories according to cell viability: sensitive (S), moderately sensitive (M), and insensitive (R), and the IC50 value of anagrelide in inhibiting each cell line was further determined.” left out

The subject of data set [2] is Twenty cell lines negatively expressing PDE3A. Briefly: Antitumor activity assay (MTT), PDE3A-negative cell lines. The format is cell-based, human. Here is the method:
as §5, with “150 μl of the dissolving solution DMSO was added to each well, and the plate was shaked for 5 to 10 min, until the crystals were completely dissolved.” left out, “The drug concentration at 50% cell poisoning (IC50) was calculated using probability unit regression. The cell lines in Example 1 were subjected to an activity assay using Anagrelide at a concentration of 1 μM, and the cell lines were classified into three categories according to cell viability: sensitive (S), moderately sensitive (M), and insensitive (R), and the IC50 value of anagrelide in inhibiting each cell line was further determined.” left out

The subject of the next data set is platelets. Description: Inhibition of platelets in vitro. The format is cell-based. Conditions: Platelet; read-out: IC50 of anagrelide inhibiting platelets in vitro.
Data set [3] is described as follows: Animal experiment, safety at tumor-inhibiting doses. The data set is classed as in vivo. Particulars: 10 mg-200 mg/kg.
The subject of data set [4] is HeLa cells transfected with pde3a siRNA. Description: RTCA growth monitoring of HeLa cells after pde3a siRNA knockdown and anagrelide treatment. The format is cell-based, human. Conditions: pde3a siRNA KD1/KD2 vs NC. Here is the method: Wherein, NC: control group, KD: PDE3A knockdown group. The HeLa cells in logarithmic growth phase were inoculated into 96-well plates or RTCA plates at about 6000/well and cultivated overnight until the cells were attached about 70-80%, and the cells were in good condition; a certain amount of serum-free and antibiotic-free medium was added into two EP tubes, respectively, and a suitable amount of siRNA was added into one tube and mixed, while a suitable amount of Lipofectamine™2000 was added into the other tube and mixed at room temperature for 5-10 min. The medium supplemented with Lipofectamine™ reagent was added into the siRNA-containing EP tube and mixed at room temperature for 15 min; during the placement, the cells were washed once with serum-free and non-double antibody medium, and 75 μL of the medium was added, ready for use. After 15 minutes, the mixed medium was added into the cell culture dish, 25 μL/well, and gently shaken and mixed; after cultured at 37° C., 5% CO2 for 6 hours, the medium was changed to fresh medium containing 10% FBS; after 24-72 h, the expression of RNAi interference protein was detected by western blot. […] The real-time monitor automatically monitored cell growth for more than 4 days, and the amount of cells was reflected according to the size of the resistance formed by spreading the cells. […]

Data set [5] shares this test system. Briefly: PI detection of apoptotic cells in HeLa after PDE3A knockdown and anagrelide treatment. The format is cell-based, human. Conditions: 48 hours after PDE3A knockout, anagrelide 36 hours, PI staining. As to the method: The HeLa cells in logarithmic growth phase were inoculated into 96-well plates or RTCA plates at about 6000/well and cultivated overnight until the cells were attached about 70-80%, and the cells were in good condition; a certain amount of serum-free and antibiotic-free medium was added into two EP tubes, respectively, and a suitable amount of siRNA was added into one tube and mixed, while a suitable amount of Lipofectamine™2000 was added into the other tube and mixed at room temperature for 5-10 min. The medium supplemented with Lipofectamine™ reagent was added into the siRNA-containing EP tube and mixed at room temperature for 15 min; during the placement, the cells were washed once with serum-free and non-double antibody medium, and 75 μL of the medium was added, ready for use. After 15 minutes, the mixed medium was added into the cell culture dish, 25 μL/well, and gently shaken and mixed; after cultured at 37° C., 5% CO2 for 6 hours, the medium was changed to fresh medium containing 10% FBS; after 24-72 h, the expression of RNAi interference protein was detected by western blot. In 96-well plates, cells were treated with different compounds for 24-36 hours, and 2 μL of PI dye liquor (25 ug/mL) was added into 96-well plates. Cells were incubated for 20 min, and photographed under a fluorescence microscope for observation of the number of red fluorescent cells. […]

SMILES strings stand for the structures. Read-outs that look alike come from different tables or passages of the source. Where only a bound is given, the exact number is not on record here.

With `O=C1CN2Cc3c(ccc(Cl)c3Cl)NC2=N1` [anagrelide, 6,7-dichloro-1,5-dihydroimidazo [2,1-b]quinazolin-2(3H) one], the IC50 was determined as 15.9 µM in the data set on A498; 428 nM in the data set on Bel7404; 8 nM in the data set on FHCC98; 23 nM in the data set on H4; 22 nM in the data set on Hela; 15 nM with SMMC7721. Moreover, the IC50 with SW1116 was 14.5 µM; in data set [1] (SMMC7721, FHCC98, H4, HeLa (PDE3A positive), read-out: IC50 values, sensitive cell lines) it was < 30 nM; in [1] (sensitive tumor cells, in vitro, read-out: IC50 for sensitive tumor cells in vitro) it was < 30 nM; in the data set on Bel7404, A498 and SW1116 (Homo sapiens, Bel7404, A498, SW1116 (PDE3A positive)), 0.4 to 16 µM; in [2] (Homo sapiens, twenty cell lines negatively expressing PDE3A) it was > 50 µM; in the data set on platelets it was 270 to 1000 nM. For the same molecule, the “sensitivity class by cell survival rate” value is reported as “sensitive (sensitive (survival rate <40%))” in data set [1] (anagrelide 1 μM, 72 hours, MTT); “moderately sensitive (moderately sensitive (40-75% of survival rate))” in the data set with Bel7404, A498 and SW1116 (anagrelide 1 μM, 72 hours, MTT); “not sensitive” in data set [2] (anagrelide 1 μM, 72 hours, MTT). For the same molecule, the “safety at doses that inhibit tumor cell growth” value in [3] is “safe”. Also, the “survival rate after anagrelide was added, KD vs NC group” value in [4] is on record as “the survival rate of KD2 with the lower level of PDE3A protein was the highest, while that in the NC group was the lowest”. Besides, the “PI positive cells, KD group vs control group” value in data set [5] is given as “fewer PI positive cells than that in the control group”.

Usually IC50 stands for the concentration that gives 50% inhibition.
